The record followed here is patent publication US20140357577A1, “HIV Membrane Fusion Inhibitors” (priority 2011, published 2014).

Assay [1] addresses gp41 of HIV-1 wild type strain IIIB (HIV-1 strain IIIB).
Assay [2] deals with gp41 of HIV-1 strain HXB2D with mutation Q40H (HIV-1 strain HXB2D) (UniProt P04578).
The subject of assay [3] is HIV mutant virus strain HXB2D with mutation V38A in the gp41 gene. As to the kind of experiment: Standard AVE, HXB2D site directed mutant V38A. Type of assay: cell-based, HIV-1. The conditions noted are these: fold change vs wild type strain HXB2D. The text has this: • Standard Anti-Viral-Experiment “AVE” (wild type HIV strain IIIB+HIV strain HXB2D side directed mutants V38A and Q40H)
The HIV-1 replication assay measures virus replication (HIV wild type virus strain 111B or HXB2D, or a HIV mutant virus strain HXB2D with mutation V38A or Q40H in the gp41 gene) as an induction of enhanced green fluorescent protein (EGFP) expression. The indicator MT4-LTR-EGFP cells contain an EGFP gene under the control of the HIV-1 LTR promoter sequence. Successful HIV-1 infection results in viral Tat protein expression and subsequent induction of EGFP expression. Compounds/peptides inhibiting HIV-1 infection are expected to reduce EGFP expression as compared to the untreated HIV-infected control.
Serial 4-fold dilutions of test compounds/peptides were mixed with HIV-1 (IIIB, HXB2D, or a HXB2D mutant virus (V38A or Q40H)) and MT4-LTR-EGFP cells and incubated at 37° C. After 3 days, the wells were examined for EGFP expression using an argon laser-scanning microscope. The effective compound/peptide concentration inhibiting 50% of the virus-induced EGFP signal (EC50) was determined by linear interpolation of the EGFP signal vs. logarithm of the compound concentration; (T20, C34 and Sifuvirtide were added as reference compounds). For the V38A and Q40H mutant viruses, results were reported as a fold change in EC50, as compared with a drug-susceptible wild type strain HXB2D, which forms the backbone of the mutant virus. • Standard AVE (50% Human Serum)

The subject of the next assay is HIV-IIIB + 50% HS. As to the kind of experiment: Standard AVE (50% Human Serum), HIV-1 replication assay in MT4-LTR-EGFP cells. Type of assay: cell-based. The conditions noted are these: fold change vs EC50 in the assay without human serum. Put shortly: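 MT4-LTR-EGFP cells infected with HIV-1 alongside 4-fold serial compound dilutions in 50% human serum, 3 days at 37 °C. EGFP read by laser-scanning microscopy; EC50 by linear interpolation against log concentration, reported as fold change versus EC50 without serum.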

For assay [4], the system named is HIV wild type virus strain IIIB. The assay is described as follows: Standard Anti-Viral-Experiment (AVE), HIV-1 replication assay in MT4-LTR-EGFP cells, wild type IIIB. Type of assay: cell-based. The note with it: 3 days, EGFP signal. Put shortly:
(§1)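 MT4-LTR-EGFP cells infected with HIV-1 IIIB, HXB2D or HXB2D gp41 mutants V38A/Q40H alongside serial 4-fold compound dilutions, 3 days at 37° C. EGFP read by laser-scanning microscopy; EC50 by linear interpolation against log concentration. Mutant results given as fold change in EC50 versus wild-type HXB2D.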

In assay [5] the test system is HIV mutant virus strain HXB2D with mutation Q40H in the gp41 gene. As to the kind of experiment: Standard AVE, HXB2D site directed mutant Q40H. Type of assay: cell-based, HIV-1. The conditions noted are these: fold change vs wild type strain HXB2D. Put shortly: as §1

Starred links: 1 amine or outer side, 2 acyl side, 3 side chain; linkers in the order of their positions; H or OH if unused. Non-standard residues stand in square brackets, D forms with d. tBuAla = CC(C)(C)C[C@H](N)C(=O)O; Suc = O=C(CCC(=O)[*:2])[*:1]; hCys = N[C@@H](CCS)C(=O)O; Tba = not defined here

C34 (peptide): in assay [1], the EC50 of HIV-IIIB replication (EGFP) was 266 nM and the fold change in EC50, HIV-IIIB + 50% HS amounted to 0.8 fold. In assay [2], this molecule yielded a fold change in EC50, HIV-HXB2D Q40H mutant of 8.8 fold.
Regarding Sifuvirtide (peptide), in assay [1], the EC50 of HIV-IIIB replication (EGFP) is 2 nM and the fold change in EC50, HIV-IIIB + 50% HS stood at 1 fold. This molecule also came in with a fold change in EC50, HIV-HXB2D Q40H mutant in assay [2] of 2 fold.
The corresponding values for Sifuvirtide-PBD (peptide) are 36400 nM, 0.8 fold and greater than 3 fold.
A word on the EC50: it is the concentration needed to bring the measured effect to its halfway point. A high value points to weaker potency. In the case of “Suc-CYLACIEELIRKAGEQQEKNEAAL-Tba-NH2 (Suc-CYLACIEELIRKAGEQQEKNEAAL-{Tba-NH2}; cysteine pairing not given here; reading uncertain; also: printed as Suc-CYLACIEELIRKAGEQQEKNEAAL-Tba-NH2) [Peptide 25]”, the “HIV-HXB2D V38A mutant (fold change in EC50)” value in assay [3] was 31. Further, the “HIV-IIIB + 50% HS (Fold change in EC50)” value in the assay on HIV-IIIB + 50% HS turned out to be 3. Moreover, the midpoint of the response in assay [4], the EC50, lay at 0.6 nM. Moreover, in assay [5], the “HIV-HXB2D Q40H mutant (fold change in EC50)” value is given as 352.
Consider “Suc-CYLACIEELIRKAQEQQEKNEAAL-Tba-NH2 [23] (Suc-CYLACIEELIRKAQEQQEKNEAAL-{Tba-NH2}; cysteine pairing not given here; reading uncertain; also: printed as Suc-CYLACIEELIRKAQEQQEKNEAAL-Tba-NH2) [Peptide 23]”, for which, in assay [3], the “HIV-HXB2D V38A mutant (fold change in EC50)” value was found to be 45. In the assay with HIV-IIIB + 50% HS, the “HIV-IIIB + 50% HS (Fold change in EC50)” value amounted to 0.6. Moreover, the EC50 in assay [4] was found to be 1 nM. In assay [5], the “HIV-HXB2D Q40H mutant (fold change in EC50)” value came out at 807.
Take “Suc-CYLACIEELIRKAQEQQEKNEAAL-Tba-NH2 [24] (Suc-CYLACIEELIRKAQEQQEKNEAAL-{Tba-NH2}; cysteine pairing not given here; reading uncertain; also: printed as Suc-CYLACIEELIRKAQEQQEKNEAAL-Tba-NH2) [Peptide 24]”: the “HIV-HXB2D V38A mutant (fold change in EC50)” value in assay [3] is 26. The “HIV-IIIB + 50% HS (Fold change in EC50)” value with HIV-IIIB + 50% HS worked out at 1. In assay [4], this molecule came in with an EC50 of 1 nM. The “HIV-HXB2D Q40H mutant (fold change in EC50)” value in assay [5] was found to be 321.
The corresponding values for “Suc-CYLACIEELIRKAQEQQEKNEAAL-Tba-NH2 [27] (Suc-CYLACIEELIRKAQEQQEKNEAAL[tBuAla]-NH2; cysteine pairing not given here) [Peptide 27]” are 28, 0.7, 3 nM and 307.
Turning to “Suc-Hcy-YLA-Hcy-IEALIRAAREQQEKNEALLR-NH2 (Suc-[hCys]YLA[hCys]IEALIRAAREQQEKNEALLR-NH2; also: cyclised, bridge not given here) [Peptide 28]”, the “HIV-HXB2D V38A mutant (fold change in EC50)” value in assay [3] came to 4. The “HIV-IIIB + 50% HS (Fold change in EC50)” value in the assay with HIV-IIIB + 50% HS worked out at 4. Also, a half-maximal response in assay [4] (EC50) required 0.6 nM. In addition, the “HIV-HXB2D Q40H mutant (fold change in EC50)” value in assay [5] is on record as 25.
As to T20 (peptide), in assay [1], the EC50 of HIV-IIIB replication (EGFP) is 17 nM and the fold change in EC50, HIV-IIIB + 50% HS came out at 3.9 fold. The fold change in EC50, HIV-HXB2D Q40H mutant in assay [2] worked out at 49.7 fold.

B1: C34-PBD* (peptide)
peptide: Ac-NNYTSLIHSLIEESQNQQEKNEQELL-NH2
As for B1, the EC50 of HIV-IIIB replication (EGFP) in assay [1] was greater than 49200 nM.
